Measured values published in US20230303570A1, “KINASE INHIBITORS AND USES THEREOF” (ABM Therapeutics Corporation, priority 2020, published 2023).

Tests used:
c-Kit = c-Kit (Homo sapiens, UniProt P10721); experiment: cKit kinase mobility shift assay; format: biochemical
Procedure: The effect of the compounds on the activity of cKit, RET and AXL kinases were assessed by Mobility shift assay. • 1. 1× kinase base buffer and stop buffer for testing kinases were prepared • 1-1) 1× Kinase base buffer (50 mM HEPES, pH 7.5, 0.01% Triton X-100) • 1-2) Stop buffer (100 mM HEPES, pH 7.5, 0.015% Brij-35, 0.2% Coating Reagent #3, 50 mM EDTA) • 2. Compound and assay plate preparation: the compound was diluted to 50× of the final desired highest inhibitor concentration in reaction by 100% DMSO. 100 μl of this compound dilution was transferred to a well in a 96-well plate. For example, if the highest desired concentration was 5 μM, then 250 μM of compound DMSO solution was prepared in this step. For all compounds, the compound was serially diluted by transferring 10 μl to 70 μl of 100 DMSO in the next well and so forth for a total of 5 concentrations. 100 μl of 100% DMSO was added to two empty wells for no compound control and no enzyme control in the same 96-well plate. The plate was labeled as source plate. The intermediate plate was prepared by transferring 10 μl of compound from source plate to a new 96-well plate as the intermediate plate, adding 90 μl of 1× kinase buffer to each well of the intermediate plate, mixing the compounds in intermediate plate for 10 min on shaker. 5 μl of each well from the 96-well intermediate plate were transferred to a 384-well plate in duplicates. For example, A1 of the 96-well plate was transferred to A1 and A2 of the 384-well plate. A2 of the 96-well plate was transferred to A3 and A4 of the 384-well plate, and so on. • 4. Kinase reaction: The assay plate already contained 5 μl of compound in 10% DMSO. A 2.5× enzyme solution was prepared by adding kinases (cKit, RET, or AXL) and DTT in 1× kinase base buffer. 2.5× enzyme solution was transferred to the assay plate (by adding 10 μl of 2.5× enzyme solution to each well of the 384-well assay plate). The plate was incubated at room temperature for 10 min. 2.5× peptide solution was prepared by adding FAM-labeled peptide, ATP, MgCl2 in the 1× kinase base buffer. 2.5× peptide solution was added to the assay plate by adding 10 μl of 2.5× peptide solution to each well of the 384-well assay plate. The plate was incubated at 28° C. for the specified period of time. 25 μl of stop buffer was added to stop reaction. Data was collected on Caliper.

HPK1 (MAP4K1) = HPK1 (MAP4K1) (Homo sapiens, UniProt Q92918); experiment: HPK1 (MAP4K1) kinase Lantha screen assay; format: biochemical
HPK1 (MAP4K1), sequence (Q92918 whole entry, species assumed): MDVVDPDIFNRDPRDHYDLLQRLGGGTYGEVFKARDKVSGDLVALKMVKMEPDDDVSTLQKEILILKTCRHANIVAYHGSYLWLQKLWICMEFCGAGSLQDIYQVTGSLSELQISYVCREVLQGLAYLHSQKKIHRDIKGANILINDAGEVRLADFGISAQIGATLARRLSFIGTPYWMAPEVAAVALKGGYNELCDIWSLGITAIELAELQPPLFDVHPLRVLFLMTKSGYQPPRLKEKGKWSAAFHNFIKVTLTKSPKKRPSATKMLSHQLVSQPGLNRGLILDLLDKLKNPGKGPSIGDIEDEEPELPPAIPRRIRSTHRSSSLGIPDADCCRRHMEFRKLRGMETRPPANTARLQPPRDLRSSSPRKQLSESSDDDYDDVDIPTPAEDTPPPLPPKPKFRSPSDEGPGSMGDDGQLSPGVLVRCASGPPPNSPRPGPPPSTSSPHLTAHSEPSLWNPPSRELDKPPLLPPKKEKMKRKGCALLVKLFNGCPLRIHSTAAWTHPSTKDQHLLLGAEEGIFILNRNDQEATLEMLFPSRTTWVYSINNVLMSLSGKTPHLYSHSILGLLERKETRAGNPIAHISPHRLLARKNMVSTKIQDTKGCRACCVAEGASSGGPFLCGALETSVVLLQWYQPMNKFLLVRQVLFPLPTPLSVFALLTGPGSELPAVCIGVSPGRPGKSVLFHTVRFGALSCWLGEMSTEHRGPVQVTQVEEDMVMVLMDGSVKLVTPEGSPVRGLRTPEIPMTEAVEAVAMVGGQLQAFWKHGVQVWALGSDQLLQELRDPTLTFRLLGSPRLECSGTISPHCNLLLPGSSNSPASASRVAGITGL
Procedure, shortened: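 Recombinant MAP4K1 preincubated 10 min with compound (6-point dilution, duplicates) in 50 mM HEPES pH 7.5, 10 mM MgCl2, then reacted with Fluorescein-PKC substrate and ATP for 90 min at room temperature. Antibody detection solution stopped reaction; after 60 min, TR-FRET read at ex 340 nm, em 520/495 nm.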

[1] = Mouse pharmacokinetics study (intravenous and oral); format: in vivo; settings: CD-1 mice; for AUC / Cmax / Tmax / Vd / half-life / clearance: mouse, plasma; for AUC / Cmax / Tmax / F: PO 25 mg/kg; for Vd / half-life / clearance: IV 5 mg/kg; for clearance: read-out: Clp
Description: The test articles were formulated in […] Hydroxypropyl-beta-cyclodextrin, either as a clear solution or fine suspension.

c-Kit, sequence (P10721 26-976): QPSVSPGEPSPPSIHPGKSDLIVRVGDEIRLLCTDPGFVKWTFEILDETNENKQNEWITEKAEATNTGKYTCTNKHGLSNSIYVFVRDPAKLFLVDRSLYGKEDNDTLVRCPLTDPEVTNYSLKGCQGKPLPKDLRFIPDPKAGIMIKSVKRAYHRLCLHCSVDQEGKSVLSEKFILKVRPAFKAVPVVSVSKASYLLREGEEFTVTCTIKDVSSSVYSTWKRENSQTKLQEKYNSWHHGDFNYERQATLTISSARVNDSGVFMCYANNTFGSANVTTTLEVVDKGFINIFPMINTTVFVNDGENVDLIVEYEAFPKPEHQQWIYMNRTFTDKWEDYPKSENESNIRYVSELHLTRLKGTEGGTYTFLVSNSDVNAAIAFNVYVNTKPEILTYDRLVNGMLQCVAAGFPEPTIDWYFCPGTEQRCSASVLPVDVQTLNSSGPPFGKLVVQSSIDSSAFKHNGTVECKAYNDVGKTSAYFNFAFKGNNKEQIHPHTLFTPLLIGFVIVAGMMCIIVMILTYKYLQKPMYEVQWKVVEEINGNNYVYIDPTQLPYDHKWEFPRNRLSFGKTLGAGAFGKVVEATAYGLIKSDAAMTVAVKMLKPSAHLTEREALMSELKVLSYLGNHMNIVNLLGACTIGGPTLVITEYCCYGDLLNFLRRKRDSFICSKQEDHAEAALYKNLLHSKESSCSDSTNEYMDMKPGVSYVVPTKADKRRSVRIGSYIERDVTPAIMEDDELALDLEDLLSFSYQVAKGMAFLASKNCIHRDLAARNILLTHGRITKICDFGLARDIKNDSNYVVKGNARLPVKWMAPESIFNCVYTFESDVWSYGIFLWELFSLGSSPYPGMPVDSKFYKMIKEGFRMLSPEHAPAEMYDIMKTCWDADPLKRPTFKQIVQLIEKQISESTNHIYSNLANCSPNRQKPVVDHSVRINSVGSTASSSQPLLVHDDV

| Structure (SMILES) | IC50 (c-Kit) | AUC [1] | Cmax [1] | Tmax [1] | other results |
| --- | --- | --- | --- | --- | --- |
| CNc1ncc2c(n1)N1CCN=C1C(c1cc(NC(=O)Nc3ccc(Cl)cc3F)c(F)cc1C)=C2 [Compound 337, 1-(4-chloro-2-fluorophenyl)-3-(2-fluoro-4-methyl-5-(2-(methylamino)-8,9-dihydroimidazo[1′,2′:1,6]pyrido[2,3-d]pyrimidin-6-yl)phenyl)urea] | < 100 nM |  |  |  |  |
| O=C(Nc1ccccc1)Nc1cc(C2=Cc3cnc(NC4COC4)nc3N3CCN=C23)c(Br)cc1F [Compound 328, 1-(4-bromo-2-fluoro-5-(2-(oxetan-3-ylamino)-8,9-dihydroimidazo[1′,2′:1,6]pyrido[2,3-d]pyrimidin-6-yl)phenyl)-3-phenylurea] | < 100 nM |  |  |  |  |
| CNc1ncc2c(n1)N1CCN=C1C(Oc1ccc(NC(=O)Nc3ccc(Cl)c(C(F)(F)F)c3)cc1)=C2 [Compound 313, 1-(4-chloro-3-(trifluoromethyl)phenyl)-3-(4-((2-(methylamino)-8,9-dihydroimidazo[1′,2′:1,6]pyrido[2,3-d]pyrimidin-6-yl)oxy)phenyl)urea] | 100 to 10000 nM |  |  |  |  |
| Cc1ncc(Nc2ncc3c(n2)N2CCN=C2C(c2cc(NC(=O)c4cc(C(F)(F)F)ccn4)ccc2C)=C3)s1 [Compound 231, N-(4-methyl-3-(2-((2-methylthiazol-5-yl)amino)-8,9-dihydroimidazo[1′,2′:1,6]pyrido[2,3-d]pyrimidin-6-yl)phenyl)-4-(trifluoromethyl)picolinamide] |  | 16200 ± 2100 ng·h/mL | 1190 ± 302 ng/mL | 1.67 ± 0.58 h | IC50 (HPK1 (MAP4K1)): < 100 nM |
| Cc1cc(F)c(NC(=O)c2cc(C(C)(C)C#N)ccn2)cc1C1=Cc2cnc(NC3COC3)nc2N2CCN=C12 [Compound 181, 4-(2-cyanopropan-2-yl)-N-(2-fluoro-4-methyl-5-(2-(oxetan-3-ylamino)-8,9-dihydroimidazo[1′,2′:1,6]pyrido[2,3-d]pyrimidin-6-yl)phenyl)picolinamide] |  | 8610 ± 903 ng·h/mL | 1760 ± 380 ng/mL | 2 h | IC50 (HPK1 (MAP4K1)): < 100 nM; F [1]: 58.1 ± 6.1%; Vd [1]: 4.78 ± 1.21 L/kg; half-life [1]: 2.01 ± 0.82 h; clearance [1]: 28.5 ± 3.8 mL/min/kg |
| CNc1ncc2c(n1)N1CCN=C1C(c1cc(NC(=O)NC3CC3)c(F)cc1C)=C2 [Compound 315, 1-cyclopropyl-3-(2-fluoro-4-methyl-5-(2-(methylamino)-8,9-dihydroimidazo[1′,2′:1,6]pyrido[2,3-d]pyrimidin-6-yl)phenyl)urea] | > 10000 nM |  |  |  |  |
| CCNc1ncc2c(n1)N1CCN=C1C(c1cc(NC(=O)Nc3ccccc3Cl)c(F)cc1C)=C2 [Compound 332, 1-(2-chlorophenyl)-3-(5-(2-(ethylamino)-8,9-dihydroimidazo[1′,2′:1,6]pyrido[2,3-d]pyrimidin-6-yl)-2-fluoro-4-methylphenyl)urea] | < 100 nM |  |  |  |  |
| CNc1ncc2c(n1)N1CCN=C1C(c1cc(NC(=O)Nc3ccccc3F)c(F)cc1C)=C2 [Compound 338, 1-(2-fluoro-4-methyl-5-(2-(methylamino)-8,9-dihydroimidazo[1′,2′:1,6]pyrido[2,3-d]pyrimidin-6-yl)phenyl)-3-(2-fluorophenyl)urea] | < 100 nM |  |  |  |  |
| CNc1ncc2c(n1)N1CCN=C1C(Oc1ccc(NC(=O)NC3CC3)cc1)=C2 [Compound 312, 1-cyclopropyl-3-(4-((2-(methylamino)-8,9-dihydroimidazo[1′,2′:1,6]pyrido[2,3-d]pyrimidin-6-yl)oxy)phenyl)urea] | > 10000 nM |  |  |  |  |
| Cc1csc(Nc2ncc3c(n2)N2CCN=C2C(c2cc(NC(=O)c4cc(C(F)(F)F)ccn4)ccc2C)=C3)n1 [Compound 233, N-(4-methyl-3-(2-((4-methylthiazol-2-yl)amino)-8,9-dihydroimidazo[1′,2′:1,6]pyrido[2,3-d]pyrimidin-6-yl)phenyl)-4-(trifluoromethyl)picolinamide] |  | 12000 ± 2750 ng·h/mL | 893 ± 258 ng/mL | 6.67 ± 2.31 h | IC50 (HPK1 (MAP4K1)): < 100 nM |
| CNc1ncc2c(n1)N1CCN=C1C(c1cc(NC(=O)Nc3ccccc3F)c(Cl)cc1C)=C2 [Compound 334, 1-(2-chloro-4-methyl-5-(2-(methylamino)-8,9-dihydroimidazo[1′,2′:1,6]pyrido[2,3-d]pyrimidin-6-yl)phenyl)-3-(2-fluorophenyl)urea] | < 100 nM |  |  |  |  |
| O=C(Nc1cc(C2=Cc3cnc(NC4COC4)nc3N3CCN=C23)c(Br)cc1F)c1cc(C(F)(F)F)ccn1 [Compound 188, N-(4-bromo-2-fluoro-5-(2-(oxetan-3-ylamino)-8,9-dihydroimidazo[1′,2′:1,6]pyrido[2,3-d]pyrimidin-6-yl)phenyl)-4-(trifluoromethyl)picolinamide] | < 100 nM |  |  |  |  |
| O=C(Nc1cc(C2=Cc3cnc(NC4COC4)nc3N3CCN=C23)c(Br)cc1F)Nc1ccccc1Cl [Compound 329, 1-(4-bromo-2-fluoro-5-(2-(oxetan-3-ylamino)-8,9-dihydroimidazo[1′,2′:1,6]pyrido[2,3-d]pyrimidin-6-yl)phenyl)-3-(2-chlorophenyl)urea] | < 100 nM |  |  |  |  |
| CNc1ncc2c(n1)N1CCN=C1C(c1cc(NC(=O)c3cc(C(C)(C)C#N)ccn3)ccc1C)=C2 [Compound 163, 4-(2-cyanopropan-2-yl)-N-(4-methyl-3-(2-(methylamino)-8,9-dihydroimidazo[1′,2′:1,6]pyrido[2,3-d]pyrimidin-6-yl)phenyl)picolinamide] |  | 6320 ± 4580 ng·h/mL | 1100 ± 497 ng/mL | 1.33 ± 0.58 h | IC50 (HPK1 (MAP4K1)): < 100 nM; F [1]: 74.6 ± 54%; Vd [1]: 6.61 ± 1.04 L/kg; half-life [1]: 1.57 ± 0.2 h; clearance [1]: 48.8 ± 5.8 mL/min/kg |
| Cc1ccc(NC(=O)c2cc(C(F)(F)F)ccn2)cc1C1=Cc2cnc(Nc3cncs3)nc2N2CCN=C12 [Compound 256, N-(4-methyl-3-(2-(thiazol-5-ylamino)-8,9-dihydroimidazo[1′,2′:1,6]pyrido[2,3-d]pyrimidin-6-yl)phenyl)-4-(trifluoromethyl)picolinamide] |  | 11700 ± 1430 ng·h/mL | 1180 ± 193 ng/mL | 1.33 ± 0.58 h |  |
| Cc1ccc(NC(=O)c2cc(C(F)(F)F)ccn2)cc1C1=Cc2cnc(Nc3ccn(C)n3)nc2N2CCN=C12 [Compound 234, N-(4-methyl-3-(2-((1-methyl-1H-pyrazol-3-yl)amino)-8,9-dihydroimidazo[1′,2′:1,6]pyrido[2,3-d]pyrimidin-6-yl)phenyl)-4-(trifluoromethyl)picolinamide] |  | 20500 ± 2190 ng·h/mL | 1630 ± 151 ng/mL | 2 h | IC50 (HPK1 (MAP4K1)): < 100 nM |
| CNc1ncc2c(n1)N1CCN=C1C(c1cc(NC(=O)Nc3ccccc3)c(F)cc1Br)=C2 [Compound 326, 1-(4-bromo-2-fluoro-5-(2-(methylamino)-8,9-dihydroimidazo[1′,2′:1,6]pyrido[2,3-d]pyrimidin-6-yl)phenyl)-3-phenylurea] | < 100 nM |  |  |  |  |
| CN1CCC(n2cc(Nc3ncc4c(n3)N3CCN=C3C(c3ccc(Cl)cc3Cl)=C4)cn2)CC1 [Compound 103, 6-(2,4-dichlorophenyl)-N-(1-(1-methylpiperidin-4-yl)-1H-pyrazol-4-yl)-8,9-dihydroimidazo[1′,2′:1,6]pyrido[2,3-d]pyrimidin-2-amine] | < 100 nM |  |  |  |  |
| Cc1cc(Nc2ncc3c(n2)N2CCN=C2C(c2cc(NC(=O)c4cc(C(F)(F)F)ccn4)ccc2C)=C3)sn1 [Compound 242, N-(4-methyl-3-(2-((3-methylisothiazol-5-yl)amino)-8,9-dihydroimidazo[1′,2′:1,6]pyrido[2,3-d]pyrimidin-6-yl)phenyl)-4-(trifluoromethyl)picolinamide] |  | 36900 ± 4060 ng·h/mL | 3060 ± 253 ng/mL | 1.67 ± 0.58 h |  |
| CNc1ncc2c(n1)N1CCN=C1C(c1cc(NC(=O)Nc3ccccc3Cl)c(F)cc1Br)=C2 [Compound 327, 1-(4-bromo-2-fluoro-5-(2-(methylamino)-8,9-dihydroimidazo[1′,2′:1,6]pyrido[2,3-d]pyrimidin-6-yl)phenyl)-3-(2-chlorophenyl)urea] | < 100 nM |  |  |  |  |
| Cc1ccc(NC(=O)c2cc(C(C)(C)C#N)ccn2)cc1C1=Cc2cnc(Nc3cnn(C)c3)nc2N2CCN=C12 [Compound 199, 4-(2-cyanopropan-2-yl)-N-(4-methyl-3-(2-((1-methyl-1H-pyrazol-4-yl)amino)-8,9-dihydroimidazo[1′,2′:1,6]pyrido[2,3-d]pyrimidin-6-yl)phenyl)picolinamide] |  | 1730 ± 619 ng·h/mL | 245 ± 37 ng/mL | 2 h |  |
